# Patent US20260248780A1, “PHARMACEUTICAL COMPOSITIONS” (Birdie Biopharmaceuticals, Inc., priority 2017, published 2026)
# What was measured:
# Type in all cases: physicochemical
# [1] = Physical and chemical (solid-state) stability under 25° C./60% RH and 40° C./75% RH for one week; details: for Form change: XRPD
# Method: Physicochemical stability of Type A (807919-05-A) was evaluated under 25° C./60% RH and 40° C./75% RH for one week, and 80° C. (closed) for 24 hours.
# [2] = pKa determination on Sirius T3
# Method: The mixtures of freebase and acid were stirred at RT for 2.5 days. Clear solutions obtained were slurried at 5° C. overnight to induce precipitation. If the samples were still clear, they would be subjected to evaporation to dryness at RT, in order to maximize the chance of identifying as many crystalline hits as possible. Resulted solids were isolated and analyzed by XRPD.
# pKa was determined on Sirius T3 TM according to the manufacturer's instructions and the parameters for pKa test was listed in Table 5-13.
# [3] = Hygroscopicity: DVS isotherm at 25° C.; details: for hygroscopicity: DVS at 25° C.; for water uptake up to 80% RH: 25° C./80% RH
# Method: DVS isotherm plot was collected at 25° C. to investigate the solid form stability as a function of humidity. […] For the possible hydrate/solvate di-HCl salt Type A, solids were equilibrated at ambient humidity (~30% RH) before testing. DVS was measured via a SMS (Surface Measurement Systems) DVS Intrinsic. The relative humidity at 25° C. were calibrated against deliquescence point of LiCl, Mg(NO3)2 and KCl. DVS isotherm plot was collected at 25° C. to investigate the solid form stability as a function of humidity for anhydrate Type A (807919-05-A). Solids were pre-dried at 0% RH to remove the unbounded solvent or water before started. […] DVS was measured via a SMS (Surface Measurement Systems) DVS Intrinsic. The relative humidity at 25° C. were calibrated against deliquescence point of LiCl, Mg(NO3)2 and KCl.
# [4] = HPLC purity of clear samples after kinetic solubility test; details: clear sample after kinetic solubility test, FeSSIF
# Method: After being centrifuged and separated using 0.45 μm Nylon filter, filtrates were collected for HPLC and pH test, and wet cakes for XRPD characterization. If clear solutions were obtained after 24 hours, accurate concentration and purity were measured for the solutions.
# [5] = Polymorph screening of freebase Type A (solid form by XRPD)
smiles,measurement,setting,value
"CCOCc1nc2c(N)nc3ccccc3c2n1CC(C)(C)O [Freebase Type A, 1-[4-amino-2-(ethoxymethyl)imidazo-[4,5-c]-quinolin-1-yl]-2-methylpropan-2-ol]",HPLC Purity % of Initial,[1]; 25° C./60% RH,99.8%
same,HPLC Purity Area %,[1]; 25° C./60% RH,99.15 Area %
same,Form change,[1]; 25° C./60% RH,No
same,HPLC Purity % of Initial,[1]; 40° C./75% RH,100.0%
same,HPLC Purity Area %,[1]; 40° C./75% RH,99.28 Area %
same,Form change,[1]; 40° C./75% RH,No
same,pKa,[2],7.2
same,hygroscopicity,[3]; listed as Type A,non-hygroscopic
same,hygroscopicity,[3]; listed as freebase Type A,non-hygroscopic
same,Water Uptake at 25° C./80% RH,"[3]; DVS, 25° C., up to 80% RH",0.1%
same,water uptake up to 80% RH,"[3]; DVS, listed as Type A",0.1%
same,water uptake up to 80% RH,"[3]; DVS, listed as freebase Type A",0.1%
same,Form Change Post DVS Test,[3]; XRPD after DVS,No
same,Form Change Post DVS Test,"[3]; XRPD pre and post DVS, listed as Type A",no form change
same,Form Change Post DVS Test,"[3]; XRPD pre and post DVS, listed as freebase Type A",no form change
same,HPLC Purity % of Initial,[4],99.9%
same,HPLC Purity Area %,[4],99.25 Area %
same,Solid Form,"[5]; anti-solvent addition: solvent 1,4-dioxane, anti-solvent Toluene, solids after stirring at 5° C. for 2 days",Type A
same,Solid Form,"[5]; anti-solvent addition: solvent 2-MeTHF, anti-solvent n-heptane",Type A + B
same,Solid Form,"[5]; anti-solvent addition: solvent Acetone, anti-solvent H2O, no solid at 5° C., then evaporation",Type A
same,Solid Form,"[5]; anti-solvent addition: solvent Acetone, anti-solvent MTBE, no solid at 5° C., then evaporation",Type B
same,Solid Form,"[5]; anti-solvent addition: solvent CHCl3, anti-solvent MTBE",Type A
same,Solid Form,"[5]; anti-solvent addition: solvent CHCl3, anti-solvent n-heptane",Type A + B
same,Solid Form,"[5]; anti-solvent addition: solvent DCM, anti-solvent Anisole",Clear
same,Solid Form,"[5]; anti-solvent addition: solvent DCM, anti-solvent Toluene",Type A
same,Solid Form,"[5]; anti-solvent addition: solvent DMAc, anti-solvent H2O",Type A
same,Solid Form,"[5]; anti-solvent addition: solvent DMSO, anti-solvent H2O",Type A
same,Solid Form,"[5]; anti-solvent addition: solvent EtOH, anti-solvent Anisole, no solid at 5° C., then evaporation",Type G
same,Solid Form,"[5]; anti-solvent addition: solvent EtOH, anti-solvent n-heptane",Type A
same,Solid Form,"[5]; anti-solvent addition: solvent Ethyl lactate, anti-solvent n-heptane",Type A + Sample H
same,Solid Form,"[5]; anti-solvent addition: solvent IBA, anti-solvent Toluene, no solid at 5° C., then evaporation",Type B
same,Solid Form,"[5]; anti-solvent addition: solvent IPA, anti-solvent H2O, no solid at 5° C., then evaporation",Clear
same,Solid Form,"[5]; anti-solvent addition: solvent MeOH, anti-solvent H2O",Type A
same,Solid Form,"[5]; anti-solvent addition: solvent MeOH, anti-solvent MTBE, solids after stirring at 5° C. for 2 days",Type A
same,Solid Form,"[5]; anti-solvent addition: solvent NMP, anti-solvent H2O",Type A
same,Solid Form,"[5]; anti-solvent addition: solvent THF, anti-solvent H2O, no solid at 5° C., then evaporation",Type A
same,Solid Form,"[5]; anti-solvent addition: solvent THF, anti-solvent n-heptane",Type A + B
same,Solid Form,"[5]; liquid vapor diffusion, RT 6 days: solvent 2-MeTHF, anti-solvent Toluene",Type A
same,Solid Form,"[5]; liquid vapor diffusion, RT 6 days: solvent Acetone, anti-solvent n-heptane",Type A
same,Solid Form,"[5]; liquid vapor diffusion, RT 6 days: solvent CHCl3, anti-solvent Toluene",Type A + B
same,Solid Form,"[5]; liquid vapor diffusion, RT 6 days: solvent DCM, anti-solvent n-heptane",Type A
same,Solid Form,"[5]; liquid vapor diffusion, RT 6 days: solvent DMAc, anti-solvent MTBE",Type D
same,Solid Form,"[5]; liquid vapor diffusion, RT 6 days: solvent EtOH, anti-solvent H2O",Type A
same,Solid Form,"[5]; liquid vapor diffusion, RT 6 days: solvent Ethyl lactate, anti-solvent MTBE",Clear
same,Solid Form,"[5]; liquid vapor diffusion, RT 6 days: solvent IBA, anti-solvent n-heptane",Clear
same,Solid Form,"[5]; liquid vapor diffusion, RT 6 days: solvent NMP, anti-solvent MTBE",Type E
same,Solid Form,"[5]; liquid vapor diffusion, RT 6 days: solvent THF, anti-solvent H2O",Type B
same,Solid Form,"[5]; polymer induced crystallization: Acetone, Polymer mixture A",Type A
same,Solid Form,"[5]; polymer induced crystallization: Acetone, Polymer mixture B",Type A
same,Solid Form,"[5]; polymer induced crystallization: MeOH, Polymer mixture A",Type A
same,Solid Form,"[5]; polymer induced crystallization: MeOH, Polymer mixture B",Type B
same,Solid Form,"[5]; polymer induced crystallization: THF, Polymer mixture A",Type A
same,Solid Form,"[5]; polymer induced crystallization: THF, Polymer mixture B",Type A
same,Crystal Form,"[5]; screening summary: Anti-solvent Addition, 20 experiments","Type A, B, G, sample H"
same,Crystal Form,"[5]; screening summary: Polymer-induced Crystallization, 6 experiments","Type A, B"
same,Crystal Form,"[5]; screening summary: Slow Cooling, 10 experiments","Type A, B, F, G"
same,Crystal Form,"[5]; screening summary: Slow Evaporation, 10 experiments","Type A, B"
same,Crystal Form,"[5]; screening summary: Slurry at RT/50° C., 31 experiments","Type A, C"
same,Crystal Form,"[5]; screening summary: Solid Vapor Diffusion, 13 experiments","Type A, C"
same,Crystal Form,"[5]; screening summary: Solution Vapor Diffusion, 10 experiments","Type A, B, D, E"
same,Crystal Form,"[5]; screening summary: Total, 100 experiments","Type A~G, sample H"
same,Solid Form,"[5]; slow cooling, then −20° C.: ACN",Type A
same,Solid Form,"[5]; slow cooling, then −20° C.: Acetone/H2O (1:3)",Type A
same,Solid Form,"[5]; slow cooling, then −20° C.: Anisole, limited solid, then evaporation at RT",Type G
same,Solid Form,"[5]; slow cooling, then −20° C.: CHCl3/MTBE (1:3)",Type B
same,Solid Form,"[5]; slow cooling, then −20° C.: EtOAc",Type A
same,Solid Form,"[5]; slow cooling, then −20° C.: EtOH/n-heptane (1:3)",Type A
same,Solid Form,"[5]; slow cooling, then −20° C.: IPAc",Type A
same,Solid Form,"[5]; slow cooling, then −20° C.: MEK",Type F
same,Solid Form,"[5]; slow cooling, then −20° C.: MIBK",Type A + B
same,Solid Form,"[5]; slow cooling, then −20° C.: THF/toluene (1:3)",Type A + B
same,Solid Form,[5]; slow evaporation at RT: 2-MeTHF/n-heptane (1:1),Type B
same,Solid Form,[5]; slow evaporation at RT: ACN,Type A + B
same,Solid Form,[5]; slow evaporation at RT: Acetone,Type A
same,Solid Form,[5]; slow evaporation at RT: CHCl3/n-heptane (1:1),Type A + B
same,Solid Form,[5]; slow evaporation at RT: DCM,Type A
same,Solid Form,[5]; slow evaporation at RT: EtOAc,Type B
same,Solid Form,[5]; slow evaporation at RT: EtOH/H2O (1:1),Type A
same,Solid Form,[5]; slow evaporation at RT: IPA,Type A
same,Solid Form,[5]; slow evaporation at RT: MeOH,Type A
same,Solid Form,[5]; slow evaporation at RT: THF,Type A
same,Solid Form,"[5]; slurry at 50° C., about 3 days: 1,4-dioxane",Type C
same,Solid Form,"[5]; slurry at 50° C., about 3 days: 2-MeTHF",Type A
same,Solid Form,"[5]; slurry at 50° C., about 3 days: ACN",Type A
same,Solid Form,"[5]; slurry at 50° C., about 3 days: Anisole",Type A
same,Solid Form,"[5]; slurry at 50° C., about 3 days: CHCl3/toluene (1:5)",Type A
same,Solid Form,"[5]; slurry at 50° C., about 3 days: EtOAc",Type A
same,Solid Form,"[5]; slurry at 50° C., about 3 days: H2O",Type A
same,Solid Form,"[5]; slurry at 50° C., about 3 days: IBA",Type A
same,Solid Form,"[5]; slurry at 50° C., about 3 days: IPA",Type A
same,Solid Form,"[5]; slurry at 50° C., about 3 days: IPAc",Type A
same,Solid Form,"[5]; slurry at 50° C., about 3 days: MEK",Type A
same,Solid Form,"[5]; slurry at 50° C., about 3 days: MIBK",Type A
same,Solid Form,"[5]; slurry at 50° C., about 3 days: MeOH/H2O (1:5)",Type A
same,Solid Form,"[5]; slurry at 50° C., about 3 days: THF/n-heptane (1:5)",Type A
same,Solid Form,"[5]; slurry at RT, 3 days: 1,4-dioxane",Type A
same,Solid Form,"[5]; slurry at RT, 3 days: 2-MeTHF",Type A
same,Solid Form,"[5]; slurry at RT, 3 days: ACN",Type A
same,Solid Form,"[5]; slurry at RT, 3 days: Anisole",Type A
same,Solid Form,"[5]; slurry at RT, 3 days: DCM/toluene (1:3)",Type A
same,Solid Form,"[5]; slurry at RT, 3 days: EtOAc",Type A
same,Solid Form,"[5]; slurry at RT, 3 days: IBA",Type A
same,Solid Form,"[5]; slurry at RT, 3 days: IPA",Type A
same,Solid Form,"[5]; slurry at RT, 3 days: IPAc",Type A
same,Solid Form,"[5]; slurry at RT, 3 days: MEK",Type A
same,Solid Form,"[5]; slurry at RT, 3 days: MIBK",Type A
same,Solid Form,"[5]; slurry at RT, 3 days: MeOH/H2O (1:3)",Type A
same,Solid Form,"[5]; slurry at RT, 3 days: THF/n-heptane (1:3)",Type A
same,Solid Form,"[5]; slurry at RT, 3 days: acetone/H2O (aw = 0.2)",Type A
same,Solid Form,"[5]; slurry at RT, 3 days: acetone/H2O (aw = 0.4)",Type A
same,Solid Form,"[5]; slurry at RT, 3 days: acetone/H2O (aw = 0.6)",Type A
same,Solid Form,"[5]; slurry at RT, 3 days: acetone/H2O (aw = 0.8)",Type A
same,Solid Form,"[5]; solid vapor diffusion, RT 7 days: 1,4-dioxane",Type C
same,Solid Form,"[5]; solid vapor diffusion, RT 7 days: ACN",Type A
same,Solid Form,"[5]; solid vapor diffusion, RT 7 days: Acetone",Type A
same,Solid Form,"[5]; solid vapor diffusion, RT 7 days: CHCl3",Type A
same,Solid Form,"[5]; solid vapor diffusion, RT 7 days: DCM",Type A
same,Solid Form,"[5]; solid vapor diffusion, RT 7 days: DMF",Type A
same,Solid Form,"[5]; solid vapor diffusion, RT 7 days: DMSO",Type A
same,Solid Form,"[5]; solid vapor diffusion, RT 7 days: EtOAc",Type A
same,Solid Form,"[5]; solid vapor diffusion, RT 7 days: EtOH",Type A
same,Solid Form,"[5]; solid vapor diffusion, RT 7 days: H2O",Type A
same,Solid Form,"[5]; solid vapor diffusion, RT 7 days: IPA",Type A
same,Solid Form,"[5]; solid vapor diffusion, RT 7 days: MeOH",Type A
same,Solid Form,"[5]; solid vapor diffusion, RT 7 days: THF",Type A
